Reference: patent US20250129021A1, “SMALL MOLECULE PROTEIN SYNTHESIS MODULATORS” (Interdict Bio, Inc., priority 2023, published 2025)
Read-outs that look alike come from different tables or passages of the source.

Experiments:
HEPG2 = test: Cell viability (CellTiter-Fluor), HEPG2; assay type: cell-based; details: Homo sapiens, 24-72 hrs
Procedure: (§1) Count and dispense 2,000-10,000 cells per well (100 μL volume) in black 96-well tissue culture microplate and let cells adhere overnight. Add compound dissolved in 100% DMSO to each well as needed and incubate cells in standard culture conditions for 24-72 hrs. Final DMSO concentration in each well should be 0.1-0.5%. At the desired time point, gently aspirate compound containing media and replace with PBS to wash. Repeat wash step for 2 total washes. Remove PBS and add 100 μL CellTiter-Fluor reagent (Promega) reagent to each well. Seal plate and incubate 1 hr at room temperature with orbital shaking. Analyze fluorescence using plate reader to quantify viable cells compared with vehicle (DMSO) control.

KLE = test: Cell viability (CellTiter-Fluor), KLE; assay type: cell-based; details: Homo sapiens, 24-72 hrs
Procedure: as §1

CCND1 = test: In vitro transcription-translation (IVTT) assay, CCND1 reporter; assay type: biochemical; details: HeLa S3 lysate, sfGFP/mCherry ratio
Summary of the method: (§2)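 Reporter: mCherry, P2A, then 3×FLAG-target peptide-sfGFP fusion, IRES-initiated; HeLa S3 lysate IVTT; cpd dilutions 30 μM−0.1 μM half-log in 100% DMSO (dilution-plate conc); DNA added last; 2 h, 30° C; PBS quench.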

NCI-H1915 = test: Cell viability (CellTiter-Fluor), NCI-H1915; assay type: cell-based; details: 24-72 hrs
Procedure: as §1

HEK 293T = test: Cell viability (CellTiter-Fluor), HEK 293T; assay type: cell-based; details: Homo sapiens, 24-72 hrs
Procedure: as §1

BCL-2 = test: In vitro transcription-translation (IVTT) assay, BCL-2 reporter; assay type: biochemical; details: HeLa S3 lysate, sfGFP/mCherry ratio, 2 hrs at 30° C.
Summary of the method: as §2

MCF7 = test: Cell viability (CellTiter-Fluor), MCF7; assay type: cell-based; details: Homo sapiens, 24-72 hrs
Procedure: as §1

LS411N = test: Cell viability (CellTiter-Fluor), LS411N; assay type: cell-based; details: Homo sapiens, LS-411N, 24-72 hrs
Procedure: as §1

HPAF-II = test: Cell viability (CellTiter-Fluor), HPAF-II; assay type: cell-based; details: Homo sapiens, 24-72 hrs
Procedure: as §1

MCL-1 = test: In vitro transcription-translation (IVTT) assay, MCL-1 reporter; assay type: biochemical; details: HeLa S3 lysate, sfGFP/mCherry ratio
Summary of the method: as §2

MYC = test: In vitro transcription-translation (IVTT) assay, MYC reporter; assay type: biochemical; details: HeLa S3 lysate, 2 hrs at 30° C.
Summary of the method: as §2

T47D = test: Cell viability (CellTiter-Fluor), T47D; assay type: cell-based; details: Homo sapiens, 24-72 hrs
Procedure: as §1

KRAS G12D = test: In vitro transcription-translation (IVTT) assay, KRAS G12D reporter; assay type: biochemical; details: HeLa S3 lysate, sfGFP/mCherry ratio, 2 hrs at 30° C.
Summary of the method: as §2

MS751 = test: Cell viability (CellTiter-Fluor), MS751; assay type: cell-based; details: 24-72 hrs
Procedure: as §1

HCC38 = test: Cell viability (CellTiter-Fluor), HCC38; assay type: cell-based; details: Homo sapiens, 24-72 hrs
Procedure: as §1

ALK = test: In vitro transcription-translation (IVTT) assay, ALK reporter; assay type: biochemical; details: HeLa S3 lysate, sfGFP/mCherry ratio, 2 hrs at 30° C.
Summary of the method: as §2

KATO-III = test: Cell viability (CellTiter-Fluor), KATO-III; assay type: cell-based; details: Homo sapiens, 24-72 hrs
Procedure: as §1

STING = test: In vitro transcription-translation (IVTT) assay, STING reporter; assay type: biochemical; details: HeLa S3 lysate, sfGFP/mCherry ratio
Procedure: (§3) In vitro transcription-translation assay setup: Each assay includes a master mix containing lysate and shared components, a 96-well plate containing compound titrations for testing, a 96-well DNA plate with reporter constructs to be tested, 96-well skirted PCR plates, and 96-well flat-bottom, black, fluorescent assay plates. Reaction materials setup: (A) Master mix—15 mL conical tube (3 mL of HeLa S3 Lysate described above; 0.6 mL of ThermoFisher Accessory Proteins (#88882); 1.2 ml of ThermoFisher Reaction Mix (#88882); 0.54 mL of nuclease-free Water); (B) 96-Well Master Mix+Compound Plate (Half-log dilutions (30 μM−0.1 μM) of 4 compounds of interest are prepared in 100% DMSO); 96-Well DNA Plate (Five DNA constructs are plated into single columns within the plate. Row 1 of the column contains nuclease free H2O, all other wells contain 110 ng/μL plasmid DNA). Reactions are started by mixing 155 μL of master mix and 3.5 μL of compound serial dilutions, then 9.1 μL of master mix+compound mixture is aliquoted across 5 96-well plates. Reactions begin with final addition of 2 μL of DNA for a 11.1 μL reaction volume in each well. The entire plate is sealed, and incubated for 2 hrs at 30° C. After 2 hrs, quench the assay using 45 μL of PBS, and transfer 50 μL to a flat-bottom black microplate Quantify the sfGFP and mCherry signals from each well on each plate, taking 3 reads of each plate, and perform data analysis below.
(§4) In vitro transcription-translation assay data analysis: Each plate is read three times in channels for both sfGFP and mCherry signals. The average signal across these 3 reads is then calculated for further analysis. Control wells containing no DNA reporter are subtracted from reporter wells in the same column to remove auto-fluorescence of the lysate. Then, the ratio of sfGFP/mCherry is calculated per well, and these ratios are averaged across the triplicate experiments on the same plate. Finally, the ratio of each titration concentration is normalized to the no drug control to create the normalized stalling metric. The error on this measurement is determined by propagating error through the averaging and normalization steps. Values are plotted and fit for IC50 determination for each test sequence and titration of compound.

CCNTB1 = test: In vitro transcription-translation (IVTT) assay, CCNTB1 reporter; assay type: biochemical; details: HeLa S3 lysate, sfGFP/mCherry ratio
Summary of the method: (§5)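 Cell-free HeLa S3 lysate reactions expressing sfGFP/mCherry reporter constructs ran 2 h at 30 °C with compound from half-log DMSO series (30 μM–0.1 μM as prepared), then were quenched with PBS. No-DNA background was subtracted, and the sfGFP/mCherry ratio was normalized to the no-drug control and fit for IC50.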

cGAS = test: In vitro transcription-translation (IVTT) assay, cGAS reporter; assay type: biochemical; details: HeLa S3 lysate, sfGFP/mCherry ratio
Procedure: as §3, §4

NFKB1 = test: In vitro transcription-translation (IVTT) assay, NFKB1 reporter; assay type: biochemical; details: HeLa S3 lysate, sfGFP/mCherry ratio
Summary of the method: as §5

JAK1 = test: In vitro transcription-translation (IVTT) assay, JAK1 reporter; assay type: biochemical; details: HeLa S3 lysate, sfGFP/mCherry ratio
Procedure: as §3, §4

[1] = IVTT assay, read-out: MCL1 IC50
[2] = IVTT assay, MYC reporter, normalized sfGFP/mCherry ratio, half-log dilutions 30 μM-0.1 μM

SMILES	IC50 (KLE)	IC50 (NCI-H1915)	IC50 (HEK 293T)	IC50 (MCF7)	IC50 (LS411N)	IC50 (HPAF-II)	IC50 (MCL-1; 2 hrs at 30° C.)	IC50 (MYC; sfGFP/mCherry ratio)	IC50 (STING)	IC50 (CCNTB1)	IC50 (CCND1; IVTT assay)	IC50 (cGAS)	IC50 (NFKB1)	IC50 (MCL-1; [1])	IC50 (JAK1)	IC50 (MYC; [2])	also measured
COc1ccc(C[C@H]2NC[C@H](O)[C@H]2OC(=O)NCc2ccnc(N)c2)cc1 [V187988, (2R,3S,4S)-4-hydroxy-2-[(4-methoxyphenyl)methyl]pyrrolidin-3-yl N-[(2-aminopyridin-4-yl)methyl]carbamate]	0.25 to 1 µM	0.25 to 1 µM	0.25 to 1 µM	0.25 to 1 µM	0.25 to 1 µM	1 to 4 µM	< 10 µM	< 10 µM									IC50 (HEPG2): ≥ 4 µM; IC50 (CCND1; 2 hrs at 30° C.): < 10 µM; IC50 (BCL-2): < 10 µM
COc1ccc(C[C@H]2NC[C@H](O)[C@H]2OC(=O)NCC2CC2)cc1 [V187189, (2R,3S,4S)-4-hydroxy-2-[(4-methoxyphenyl)methyl]pyrrolidin-3-yl N-(cyclopropylmethyl)carbamate; trifluoroacetic acid]	0.25 to 1 µM	0.25 to 1 µM	< 0.25 µM	0.25 to 1 µM	< 0.25 µM	0.25 to 1 µM	< 10 µM	< 10 µM									IC50 (T47D): 0.25 to 1 µM; IC50 (KRAS G12D): < 10 µM; IC50 (MS751): 0.25 to 1 µM; IC50 (HCC38): 0.25 to 1 µM; IC50 (ALK): < 10 µM; IC50 (KATO-III): 0.25 to 1 µM
O=C(NCCOC(F)(F)F)O[C@@H]1[C@@H](O)CN[C@@H]1Cc1ccc(-c2cnco2)cc1 [V192265, (2R,3S,4S)-4-hydroxy-2-{[4-(1,3-oxazol-5-yl)phenyl]methyl}pyrrolidin-3-yl N-[2-(trifluoromethoxy)ethyl]carbamate]									< 10 µM	< 10 µM	< 10 µM	< 10 µM	< 10 µM	< 10 µM	< 10 µM	< 10 µM	
O=C(NCc1cccc(F)c1)O[C@@H]1[C@@H](O)CN[C@@H]1Cc1ccc(-c2cnc(C(F)(F)F)s2)cc1 [V192114, (2R,3S,4S)-4-hydroxy-2-({4-[2-(trifluoromethyl)-1,3-thiazol-5-yl]phenyl}methyl)pyrrolidin-3-yl N-[(3-fluorophenyl)methyl]carbamate]									> 30 µM	> 30 µM	> 30 µM	< 10 µM	< 10 µM	> 30 µM	10 to 20 µM	> 30 µM	
O=C(NCC[C@@H]1CCCN1)O[C@@H]1[C@@H](O)CN[C@@H]1Cc1ccc(-c2cnco2)cc1 [V192047, (2R,3S,4S)-4-hydroxy-2-{[4-(1,3-oxazol-5-yl)phenyl]methyl}pyrrolidin-3-yl N-{2-[(2S)-pyrrolidin-2-yl]ethyl}carbamate]									< 10 µM	< 10 µM	< 10 µM	< 10 µM	< 10 µM	< 10 µM	< 10 µM	< 10 µM	
O=C(NCCC1CCNCC1)O[C@@H]1[C@@H](O)CN[C@@H]1Cc1ccc(-c2cnco2)cc1 [V192049, (2R,3S,4S)-4-hydroxy-2-{[4-(1,3-oxazol-5-yl)phenyl]methyl}pyrrolidin-3-yl N-[2-(piperidin-4-yl)ethyl]carbamate]									< 10 µM	< 10 µM	< 10 µM	< 10 µM	< 10 µM	< 10 µM	< 10 µM	< 10 µM	
COc1ccc(C[C@H]2NC[C@H](O)[C@H]2OC(=O)NCc2ccnnc2)cc1 [V187917, (2R,3S,4S)-4-hydroxy-2-[(4-methoxyphenyl)methyl]pyrrolidin-3-yl N-(pyridazin-4-ylmethyl)carbamate]	0.25 to 1 µM	0.25 to 1 µM	< 0.25 µM	0.25 to 1 µM	0.25 to 1 µM	1 to 4 µM	< 10 µM	< 10 µM									IC50 (HEPG2): 1 to 4 µM; IC50 (CCND1; 2 hrs at 30° C.): < 10 µM; IC50 (BCL-2): < 10 µM
O=C(NCc1cccc(C2CNC2)c1)O[C@@H]1[C@@H](O)CN[C@@H]1Cc1ccc(-c2cnco2)cc1 [V192154, (2R,3S,4S)-4-hydroxy-2-{[4-(1,3-oxazol-5-yl)phenyl]methyl}pyrrolidin-3-yl N-{[3-(azetidin-3-yl)phenyl]methyl}carbamate]									< 10 µM	< 10 µM	< 10 µM	< 10 µM	< 10 µM	< 10 µM	< 10 µM	< 10 µM	
O=C(NCc1ccnc(N2CCC2)c1)O[C@@H]1[C@@H](O)CN[C@@H]1Cc1ccc(-c2cnco2)cc1 [V192160, (2R,3S,4S)-4-hydroxy-2-(4-(oxazol-5-yl)benzyl)pyrrolidin-3-yl ((2-(azetidin-1-yl)pyridin-4-yl)methyl)carbamate]									< 10 µM	< 10 µM	< 10 µM	< 10 µM	< 10 µM	< 10 µM	< 10 µM	< 10 µM	
